This is an account of results in patent publication US20250101041A1, “POSITIVE ALLOSTERIC MODULATORS OF THE MUSCARINIC ACETYLCHOLINE RECEPTOR M4” (Vanderbilt University, priority 2022, published 2025).

The experiment addresses T1, human mAChR M4 (Homo sapiens, UniProt P08173).
T1 construct: expressed in transfected cells; host or cells: CHO-K1 (American Type Culture Collection), stably expressing hM4 and Gqi5
T1 sequence (P08173 1-479): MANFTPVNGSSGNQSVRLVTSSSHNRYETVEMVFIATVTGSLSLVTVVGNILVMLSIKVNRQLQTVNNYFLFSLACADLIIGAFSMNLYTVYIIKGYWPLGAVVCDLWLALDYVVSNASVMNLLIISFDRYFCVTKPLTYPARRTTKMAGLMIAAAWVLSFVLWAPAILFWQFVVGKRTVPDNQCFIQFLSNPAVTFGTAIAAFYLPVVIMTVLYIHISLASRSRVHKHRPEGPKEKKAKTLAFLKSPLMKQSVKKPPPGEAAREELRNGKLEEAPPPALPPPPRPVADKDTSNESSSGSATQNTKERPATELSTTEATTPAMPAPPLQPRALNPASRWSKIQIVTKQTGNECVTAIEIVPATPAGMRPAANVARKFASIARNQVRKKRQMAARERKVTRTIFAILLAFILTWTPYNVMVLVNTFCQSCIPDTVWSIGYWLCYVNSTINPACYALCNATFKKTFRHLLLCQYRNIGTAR
Nature of the experiment: mAChR M4 cell-based functional assay: calcium mobilization (Fluo-4, FDSS), potentiation of EC20 acetylcholine response in hM4-Gqi5 CHO-K1 cells. The note with it: human M4; for Emax at 30 µM: CHO-K1, % ACh maximum at 30 μM; for EC50: potentiation of EC20 acetylcholine response, calcium mobilization. The procedure, abridged:
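CHO-K1 cells stably co-expressing human M4 and chimeric Gqi5, loaded with Fluo-4 AM (50 min, 37 °C). Compounds in 11-point 1:3 series added first; EC20 acetylcholine added at 144 s and again at 230 s. Calcium read on FDSS at 1 Hz; EC50 and Emax from four-parameter logistic fit of potentiated EC20 response.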

As to `Cc1cc2nccc(=O)n2nc1N1CCc2ncc(-c3scnc3C)cc2C1` [Compound 1-395, 8-methyl-7-(3-(4-methylthiazol-5-yl)-7,8-dihydro-1,6-naphthyridin-6(5H)-yl)-4H-pyrimido[1,2-b]pyridazin-4-one], the maximal effect (Emax) at 30 µM worked out at 90% and the 50% effective concentration (EC50) is 138 nM.
In the same order, the values of `Cc1cc(=O)n2nc(N3CCc4ncc(N5CCCn6nccc65)cc4C3)c(C)c(C)c2n1` [Compound 2-23, 7-(3-(6,7-dihydropyrazolo[1,5-a]pyrimidin-4(5H)-yl)-7,8-dihydro-1,6-naphthyridin-6(5H)-yl)-2,8,9-trimethyl-4H-pyrimido[1,2-b]pyridazin-4-one] are 83% and 18 nM.
In the same order, the values of `Cc1cc(=O)n2nc(N3CCc4ncc(-c5ccccc5F)cc4C3)c(C)cc2n1` [Compound 1-234, 7-(3-(2-fluorophenyl)-7,8-dihydro-1,6-naphthyridin-6(5H)-yl)-2,8-dimethyl-4H-pyrimido[1,2-b]pyridazin-4-one] are 71% and 235 nM.
The corresponding values for `Cc1ccc(-c2cnc3c(c2)CN(c2nn4c(=O)cc(CC5CCCC5)nc4c(C)c2C)CC3)cn1` [Compound 1-226, 2-(cyclopentylmethyl)-8,9-dimethyl-7-(3-(6-methylpyridin-3-yl)-7,8-dihydro-1,6-naphthyridin-6(5H)-yl)-4H-pyrimido[1,2-b]pyridazin-4-one] are 59% and 1190 nM.
`Cc1cc(=O)n2nc(N3CCc4ncc(-c5cc(F)c(F)cc5F)cc4C3)c(C)c(C)c2n1` [Compound 1-200, 2,8,9-trimethyl-7-(3-(2,4,5-trifluorophenyl)-7,8-dihydro-1,6-naphthyridin-6(5H)-yl)-4H-pyrimido[1,2-b] pyridazin-4-one]: the maximal effect (Emax) at 30 µM came to 84% and the concentration giving a half-maximal response (EC50) worked out at 531 nM.
The corresponding values for `Cc1nc(-c2cccc(Nc3cnc4c(c3)CN(c3nn5c(=O)ccnc5cc3C)CC4)c2)cs1` [Compound 2-83, 8-methyl-7-(3-((3-(2-methylthiazol-4-yl)phenyl)amino)-7,8-dihydro-1,6-naphthyridin-6(5H)-yl)-4H-pyrimido[1,2-b]pyridazin-4-one] are 59% and 639 nM.
Regarding `COCc1cc(=O)n2nc(N3CCc4ncc(-c5cnccn5)cc4C3)c(C)c(C)c2n1` [Compound 1-261, 2-(methoxymethyl)-8,9-dimethyl-7-(3-(pyrazin-2-yl)-7,8-dihydro-1,6-naphthyridin-6(5H)-yl)-4H-pyrimido[1,2-b]pyridazin-4-one], the maximal response (Emax) at 30 µM worked out at 94% and the EC50 worked out at 20 nM.
In the same order, the values of `Cc1cc2nccc(=O)n2nc1N1CCc2ncc(NC(=O)c3ncco3)cc2C1` [Compound 2-122, N-(6-(8-methyl-4-oxo-4H-pyrimido[1,2-b]pyridazin-7-yl)-5,6,7,8-tetrahydro-1,6-naphthyridin-3-yl)oxazole-2-carboxamide] are 44% and 1880 nM.
The corresponding values for `Cc1cc(=O)n2nc(N3CCc4ncc(-c5cnn(C(F)F)c5)cc4C3)c(C)cc2n1` [Compound 1-215, 7-(3-(1-(difluoromethyl)-1H-pyrazol-4-yl)-7,8-dihydro-1,6-naphthyridin-6(5H)-yl)-2,8-dimethyl-4H-pyrimido[1,2-b]pyridazin-4-one] are 85% and 338 nM.
In the case of `Cc1c(N2CCc3ncc(-c4ccccc4C(F)(F)F)cc3C2)nn2c(=O)ccnc2c1C` [Compound 1-266, 8,9-dimethyl-7-(3-(2-(trifluoromethyl)phenyl)-7,8-dihydro-1,6-naphthyridin-6(5H)-yl)-4H-pyrimido[1,2-b] pyridazin-4-one], the Emax at 30 µM was 81% and the EC50 was determined as 621 nM.
In the same order, the values of `Cc1c(N2CCc3ncc(-c4ccccc4OC(F)(F)F)cc3C2)nn2c(=O)ccnc2c1C` [Compound 1-265, 8,9-dimethyl-7-(3-(2-(trifluoromethoxy)phenyl)-7,8-dihydro-1,6-naphthyridin-6(5H)-yl)-4H-pyrimido[1,2-b] pyridazin-4-one] are 61% and 929 nM.

What is called Emax is the maximal effect, on the per cent scale that the assay sets. For orientation: EC50 means the midpoint of the concentration-response curve.
